Ends that are not written are not given here.

One data set can be described thus: Serum stability. Format: in vitro ADME. The following applies: fresh mouse serum, 37°C, read-out inhibition zone on S. aureus PRSA P1383 plates. The protocol: (§1) To assess serum stability, peptides were dissolved in H2O or fresh mouse serum for the indicated times at 37°C and their residual activity was measured by the inhibition-zone assay (Hultmark, [1998]).
For another data set, the system named is S. aureus PRSA P1383. The data set can be described thus: Killing kinetics. The note with it: 5x CL (20 μg/ml). Format: cell-based, Staphylococcus aureus. The protocol: The in vitro killing curve for MeuTXKβ1 was determined against the bacterium S. aureus PRSA P1383. For the assay, a single fresh colony was inoculated into LB (Luria-Bertani) medium (10 g tryptone, 5 g yeast extract, and 5 g NaCl in 1 l of H2O) and incubated at 37°C until OD600 of 0.2. The initial concentration used was 4 × 10^7 cells/ml. Samples for colony counts were taken at time 0, 5, 10, 15, 20, 30, and 60 min after addition of peptides. Results are given as colony-forming units (CFUs) per milliliter.

The next data set is described as follows: Stability in H2O. Format: physicochemical. The following applies: 37°C, read-out inhibition zone on S. aureus PRSA P1383 plates. The protocol: as §1
For data set [1], the system named is penicillin-resistant Staphylococcus aureus P1383. Briefly: Inhibition-zone assay (CL). Format: cell-based. The note with it: concentration used in killing kinetics and membrane permeation. The protocol:
(§2) The antimicrobial activity of seven peptides, including MeuFSPL-1, MeuFSPL-2, Marmelittin, Melittin, Meucin-22, Marcin-22, and MeuTXKβ1, was evaluated by the inhibition-zone assay previously described in our studies (Hultmark, [1998]; Zhu et al., [2012a]; Zhu and Gao, [2014]). Temperatures used were 30 or 37°C for bacteria or 28°C for fungi. Media used were Luria-Bertani (LB) Broth (10 g tryptone, 5 g yeast extract, and 5 g NaCl in 1 l of water) or Nutrient Broth (10 g peptone, 5 g beef extract powder, and 5 g NaCl in 1 l of water) or GYM(Isp2) (4 g yeast extract, 10 g malt extract, 4 g glucose, 2 g CaCO3 in 1 l of water) for bacteria or Potato Dextrose Broth (200 g patato and 20 g glucose in 1 l of water) for fungi. To make plates, 10 μl of microbial culture (~2 × 10^6 bacterial cells or fungal spores/ml) were mixed in 6 ml of medium containing 0.8% agar and poured into Peri dishes of 9.0 cm diameter. Wells with a diameter of 2 mm were punched into the medium, filled with 2 μl of sample each well. In this assay, three different doses of peptides were applied to three independent wells in one standard bacterial plate. After incubation overnight, inhibition zones were measured and used to calculate lethal concentrations (CL), a concentration just sufficient to inhibit bacterial growth (Hultmark, [1998]; Gao et al., [2009]). CL values are calculated from a plot of d^2 against log n, where d is the diameter (in cm) and n is the amount of sample applied in the well (in nmol). The plot is linear and thus CL can be calculated from the slope (k) and the intercept (m) of this plot. The formula used here is CL = 2.93/ak10^m/k, where “a” is the thickness of the bacterial plate and “CL” is in μM.

Data set [2] concerns methicillin-resistant coagulase-negative Staphylococcus P1369. The data set can be described thus: Inhibition-zone assay (CL). The following applies: MRCNS P1369, N.A. = no activity at 0.8 nmol peptide each well. Format: cell-based. The protocol:
as §2

Data set [3] deals with Staphylococcus aureus J710. The data set can be described thus: Inhibition-zone assay (CL). The note with it: SA J710, N.A. = no activity at 0.8 nmol peptide each well. Format: cell-based. The protocol: as §2
Data set [4] relates to Staphylococcus aureus J706. The data set can be described thus: Inhibition-zone assay (CL). The note with it: SA J706, N.A. = no activity at 0.8 nmol peptide each well. Format: cell-based. The protocol:
as §2

Data set [5] deals with penicillin-resistant Staphylococcus epidermidis P1389. The data set can be described thus: Inhibition-zone assay (CL). The note with it: PRSE P1389, N.A. = no activity at 0.8 nmol peptide each well. Format: cell-based. The protocol: as §2
The subject of data set [6] is Streptococcus mutans ATCC 1.2499. The data set can be described thus: Inhibition-zone assay (CL). Format: cell-based. The note with it: SM ATCC 1.2499, N.A. = no activity at 0.8 nmol peptide each well. The protocol:
as §2

In data set [7] the test system is Staphylococcus aureus J708. Briefly: Inhibition-zone assay (CL). Type of data set: cell-based. The note with it: SA J708, N.A. = no activity at 0.8 nmol peptide each well. The protocol: as §2
Data set [8] has as its system Staphylococcus aureus J685. Briefly: Inhibition-zone assay (CL). Type of data set: cell-based. The following applies: SA J685, N.A. = no activity at 0.8 nmol peptide each well. The protocol: as §2
Data set [9] deals with Streptococcus salivarius ATCC 1.2498. Briefly: Inhibition-zone assay (CL). The following applies: SSAL ATCC 1.2498, N.A. = no activity at 0.8 nmol peptide each well. Format: cell-based. The protocol:
as §2

For data set [10], the system named is methicillin-sensitive Staphylococcus aureus CGMCC 1.89. Briefly: Inhibition-zone assay (CL). Format: cell-based. The note with it: MSSA CGMCC 1.89, N.A. = no activity at 0.8 nmol peptide each well. The protocol: as §2
The test system of data set [11] is Staphylococcus aureus J698. The data set can be described thus: Inhibition-zone assay (CL). Format: cell-based. The following applies: SA J698, N.A. = no activity at 0.8 nmol peptide each well. The protocol: as §2
Data set [12] concerns penicillin-sensitive Staphylococcus epidermidis P1111. The data set can be described thus: Inhibition-zone assay (CL). Format: cell-based. The following applies: PSSE P1111, N.A. = no activity at 0.8 nmol peptide each well. The protocol: as §2
For data set [13], the system named is Stenotrophomonas maltophilia CGMCC 1.1788. Briefly: Inhibition-zone assay (CL). The following applies: SMAL CGMCC 1.1788, N.A. = no activity at 0.8 nmol peptide each well. Format: cell-based. The protocol:
as §2

Data set [14] relates to Staphylococcus warneri ATCC 1.2824. The data set can be described thus: Inhibition-zone assay (CL). Type of data set: cell-based. The following applies: SW ATCC 1.2824, N.A. = no activity at 0.8 nmol peptide each well. The protocol: as §2
For data set [15], the system named is Bacillus subtilis CGMCC 1.2428. Briefly: Inhibition-zone assay (CL). The note with it: BS CGMCC 1.2428, N.A. = no activity at 0.8 nmol peptide each well. Type of data set: cell-based. The protocol:
as §2

Data set [16] relates to Staphylococcus aureus J700. Briefly: Inhibition-zone assay (CL). Format: cell-based. The following applies: SA J700, N.A. = no activity at 0.8 nmol peptide each well. The protocol:
as §2

Data set [17] concerns Streptomyces griseus NBRC 13350. The data set can be described thus: Inhibition-zone assay (CL). Type of data set: cell-based. The note with it: SG NBRC 13350, N.A. = no activity at 0.8 nmol peptide each well. The protocol:
as §2

For data set [18], the system named is Streptococcus sanguinis ATCC 1.2497. The data set can be described thus: Inhibition-zone assay (CL). Format: cell-based. The note with it: SSAN ATCC 1.2497, N.A. = no activity at 0.8 nmol peptide each well. The protocol:
as §2

In data set [19] the test system is Streptomyces scabiei CGMCC 4.1765. The data set can be described thus: Inhibition-zone assay (CL). Format: cell-based. The note with it: SSCA CGMCC 4.1765, N.A. = no activity at 0.8 nmol peptide each well. The protocol: as §2
The mark [20] stands for this setting: 24 h, three independent experiments.

For `CN[C@H](CC(C)C)C(=O)N[C@H]1C(=O)N[C@@H](CC(N)=O)C(=O)N[C@H]2C(=O)N[C@H]3C(=O)N[C@H](C(=O)N[C@H](C(=O)O)c4cc(O)cc(O)c4-c4cc3ccc4O)[C@H](O)c3ccc(c(Cl)c3)Oc3cc2cc(c3O[C@@H]2O[C@H](CO)[C@@H](O)[C@H](O)[C@H]2O[C@H]2C[C@](C)(N)[C@H](O)[C@H](C)O2)Oc2ccc(cc2Cl)[C@H]1O` [vancomycin], the “residual activity after incubation in mouse serum” value in “Serum stability” (6 h) was “remained its full activity”; in “Serum stability” (setting [20]), “completely lose”. The “killing rate compared with MeuTXKβ1” value in the data set with S. aureus PRSA P1383 is reported as “slower killing rate”. The results for the “residual activity after incubation in H2O” value in the data set “Stability in H2O” (6 h) and in the data set “Stability in H2O” (setting [20]) were “remained its full activity” and “completely lose”, respectively. In addition, in data set [1], the “5x CL for P1383” value was found to be 20 µg/mL.

For the compound “IFGAIAGLLKNIF-NH2 [MUC-13, reference compound]”, the “Lethal concentration (CL)” value in [2] came out at 33.80 µM; in [3], 7.10 µM; in data set [4], 5.67 µM; in data set [5], 24.06 µM; in data set [6], 10.24 µM; in data set [7], 7.54 µM. The “Lethal concentration (CL)” value turned out to be 10.16 µM in data set [8]; 7.54 µM in data set [9]; 10.24 µM in [10]; 7.54 µM in data set [11]; 10.24 µM in data set [12]; 4.89 µM in data set [13]. For the same compound, the “Lethal concentration (CL)” value in data set [14] was 6.24 µM; in [15] it was 6.24 µM; in data set [16], 7.54 µM; in data set [17], 53.31 µM; in data set [18] it was 6.24 µM; in [19], 15.07 µM.

The values above are taken from publication PMC5863496, “Mesobuthus Venom-Derived Antimicrobial Peptides Possess Intrinsic Multifunctionality and Differential Potential as Drugs” (Frontiers in Microbiology, 2018).
